Assay results: patent US7335682B2, “Pharmaceutical compositions and methods for treating immune-response associated diseases of the surface and the anterior segment of the eye” (The Zhongshan Opthalmic Center, priority 2000, dated 2008)
Like-named read-outs stand apart in the source and are kept apart here.

How the values were obtained:
[1] = test system: immune rejection in high risk cornea transplantation; experiment: Clinical study of suppression of immune rejection in high risk cornea transplantation
Text: Fifty-six high risk patients (56 eyes) who needed operation for cornea transplantation were randomly divided into a treatment group and a control group, each having […] patients. […] Average time for follow-up survey was 5½ months. The main criteria for clinical valuation include visual function, lasting time for transparency, new angiopoiesis, swelling, opaque degree of transplanted corneas after operation.
56 high risky patients (56 eyes) who need operation for cornea transplantation were chosen in this study with 32 eyes from male and 24 from female. The average age was 31 (19-66). Of which 27 eyes were carried for full cornea transplantation, 14 for full cornea transplantation with scleral ring, 10 eyes with angiopoiesis cornea were used for cornea transplantation, and 10 for multiple transplantations. Blindness was caused by pyogenic infection of eyes (30 eyes), severe chemical injury (18 eyes), and thermal burn (8 eyes).
The control medicine CsA was a product of Swiss Sandoz pharmaceuticals which was diluted to 1% eye drops with oleum ricini. Corticosteroid eye drops was also purchased commercially.
The above cases were randomly divided into treatment group and control group with each having 28 eyes. […] Medicines were given 3 days after surgery, continuing 3-9 months, follow-up survey was 5½ months.
Observation was done twice a week within 1-3 months after medication, then once a week after 3 months. The items for observation were vision and transplanted corneas (including three criteria: new angiopoiesis, swelling, opacity of transplanted corneas). The scores for each criterion are as follows: new angiopoiesis has grades 0-3, grade 0 indicates no new angiopoiesis (0 score), grade 1 a few new angiopoiesis focusing on transplanted corneas and starting penetration the edges of transplantation (1 score), grade 2 a few new angiopoiesis focusing on center of the transplanted corneas (2 scores), grade 3 a great numbers of new angiopoiesis fully covering the whole transplanted corneas (3 scores). The swelling contains grades 0-3, grade 0 means no swelling (0 score), grade 1 light swelling (1 score), grade 2 medium swelling (2 scores), grade 3 severe swelling (3 scores). […] Rejection index (RI) is a sum of the previous 3 criteria. When RI=5 scores it is considered rejection. The study would not cover the following conditions: epithelium had reaction of rejection, complication happened during operation, and swelling and dissolution of transplanted corneas occurred after operation due to a functional failure of implanted cornea endothelia, lesion fissure, secondary glaucoma, infection of transplantation.
All operations on patients in the study were done by professors in the Department of Corneal Diseases. Donor corneas were all freshly obtained from adults. Specific people were assigned for follow-up survey after surgery. t-test, u-test, and analysis of variance were carried out on the data using commercially available software.

[2] = test system: immunosuppression; conditions: in vitro; cited from earlier work
[3] = cited from earlier work
[4] = test system: immune-response related ocular surface diseases; experiment: Further clinical observations with topical tacrolimus in immune ocular diseases; format: in vivo, patients
[5] = test system: immune rejection of allotypic cornea transplantation; conditions: rat; for effect on immune rejection in allotypic cornea transplantation: superficial (ocular surface) administration

SMILES	final rate of rejection to the transplantation ([1]; 28 eyes per group, RI=5 counted as rejection, follow-up 5½ months)	maintenance time for transparency in transplanted corneas after surgery ([1]; 28 eyes per group, eye drops four times a day with TOBRA DEX)	eyes with final vision (=0.05 for FK-506, =0.5 for CsA as printed) ([1]; 28 eyes per group, with TOBRA DEX, follow-up 5½ months)	new angiopoiesis, swelling, opaqueness and RI values of cornea transplantation ([1]; during follow-up survey)	adverse reactions (twinges, itches, toxic reactions on cornea epithelia) ([1]; topical eye drops, patients)	effect on immunosuppression relative to CsA [2]	terminal elimination half-life ([3]; healthy volunteers)	absorption half-life ([3]; oral dose, measured in 16 patients)	terminal elimination half-life ([3]; transplant patients)	conjunctive inflammation non-responsive to CsA treatment ([4]; 17 cases, topical administration)	recurrence of recurring erosive corneal ulcer ([4]; 26 cases, five months to two years, topical)	rejection reaction in cornea transplantation ([4]; 64 cases, most of them, topical)	effect on Type I and IV hypersensitive reactions ([4]; topical administration)	effect on Types II and III hypersensitive reactions (e.g. Steven Johnson Syndrome) ([4]; topical administration)	effect on re-construction of ocular surface and obstinate and immune corneal diseases ([4]; topical administration)	effect on immune rejection in allotypic cornea transplantation [5]	effect on immune rejection in allotypic cornea transplantation ([5]; listed as Tecolimus)	effect on swelling of transplanted corneas in early phase ([5]; superficial administration)	effect on inflammation in early phase ([5]; superficial administration)	inhibition of new angiopoiesis after cornea transplantation ([5]; superficial administration)
C=CC[C@@H]1/C=C(\C)C[C@H](C)C[C@H](OC)[C@H]2O[C@@](O)(C(=O)C(=O)N3CCCC[C@H]3C(=O)O[C@H](/C(C)=C/[C@@H]3CC[C@@H](O)[C@H](OC)C3)[C@H](C)[C@@H](O)CC1=O)[C@H](C)C[C@@H]2OC.O [tacrolimus, Tacrolimus]	60.8%	70.4 ± 18.32 days	39.3%	much better than the CsA group	No patient showed adverse reactions	10-100 folds	21.2 h	5.7 ± 4.6 h	11.7 ± 3.9 h	successfully controlled	only three cases had recurrence	significantly reduced rejection reaction	significant therapeutic effects	some, but not complete therapeutic effect	excellent clinical effects	clear inhibition	clearly therapeutic effects	worse therapeutic effects		
C[C@@H]1C[C@H]2[C@@H]3CCC4=CC(=O)C=C[C@]4(C)[C@@]3(F)[C@@H](O)C[C@]2(C)[C@@]1(O)C(=O)CO [corticosteroid, dexamethasone]																			strong inhibition effect	strongest effect
